The values below come from patent US20240117005A1, “NOVEL BICYCLIC PEPTIDES” (THE COUNCIL OF THE QUEENSLAND INSTITUTE OF MEDICAL RESEARCH, priority 2021, published 2024).

Entries after “also recorded” stand apart in the source; their conditions may differ. No end group written: not given here. *: point of attachment. Myristyl = CCCCCCCCCCCCCC*

In assay [1] the target is T1, complex of PDL1-PTM1 and IMPα1 (Mus musculus, UniProt P52293).
T1 construct: endogenous in cells; host or cells: CT26
The experiment in a line: DUOLINK proximity assay PDL1-PTM1 and IMPα1, CT26. Type of assay: cell-based. As for the experimental part:
(§1) (A) CT26, 4T1 or MDA-MB-231 Cells were treated with inhibitors for 72 hours. Following inhibition, media was removed and replaced with WST-1 cell proliferation reagent. Absorbance was recorded at 450 nm after 1 hour. Data represent a single independent experiment performed in triplicate. Results are graphed as mean +/− standard error (SE). B) MDA-MB-231 or CT26 cancer cells were treated with vehicle control, DL-2-Batch 1 (original stock), DL-2-Batch 2 (current stock), DL-2-TBAB or linear PDL1. Cells were permeabilised and were probed with the DUOLINK ligation assay. Cover slips were mounted on glass microscope slides with ProLong nucblue glass Antifade reagent (Life Technologies). PDL1Ac and IMPα1 DUOLINK Digital images were analysed using ImageJ software (ImageJ, NIH, Bethesda, MD, USA) and graphs represent the mean DOT Fluorescent Intensity in the nucleus or the cytoplasm compartments with significant differences calculated as per one-way ANOVA comparison. […] PDL1-unmodified and IMPα1 DUOLINK digital images were analysed using ImageJ software (ImageJ, NIH, Bethesda, MD, USA) and graphs represent the mean DOT fluorescent intensity in the nucleus or the cytoplasm compartments with significant differences calculated as per one-way ANOVA comparison. […]

The target in assay [2] is T2, complex of PDL1 (unmodified) and IMPα1 (Mus musculus, UniProt P52293).
T2 construct: endogenous in cells; host or cells: CT26
Put plainly: DUOLINK proximity assay PDL1 (unmodified) and IMPα1, CT26. The class given is cell-based. As for the experimental part: (§2) To characterize unmodified PDL1 and IMPα1, MDA-MB-231 cells or CT26 cells were treated with vehicle control, DL-2-batch 1, DL-2-batch 2 or linear PDL1. Cells were permeabilised and were probed with the DUOLINK ligation assay. Cover slips were mounted on glass microscope slides with ProLong nucblue glass Antifade reagent (Life Technologies). PDL1 (unmodified) and IMPα1 DUOLINK Digital images were analysed using ImageJ software (ImageJ, NIH, Bethesda, MD, USA) and graphs represent the mean DOT Fluorescent Intensity in the nucleus or the cytoplasm compartments with significant differences calculated as per One-Way ANOVA comparison.
(A) CT26, 4T1 or MDA-MB-231 Cells were treated with inhibitors for 72 hours. […] Absorbance was recorded at 450 nm after 1 hour. […] PDL1Ac and IMPα1 DUOLINK Digital images were analysed using ImageJ software (ImageJ, NIH, Bethesda, MD, USA) and graphs represent the mean DOT Fluorescent Intensity in the nucleus or the cytoplasm compartments with significant differences calculated as per one-way ANOVA comparison. […] PDL1-unmodified and IMPα1 DUOLINK digital images were analysed using ImageJ software (ImageJ, NIH, Bethesda, MD, USA) and graphs represent the mean DOT fluorescent intensity in the nucleus or the cytoplasm compartments with significant differences calculated as per one-way ANOVA comparison. […]

Assay [3] concerns the target T3, complex of PDL1 (unmodified) and IMPα1 (Homo sapiens, UniProt P52292).
T3 construct: endogenous in cells; host or cells: MDA-MB-231
The experiment in a line: DUOLINK proximity assay PDL1 (unmodified) and IMPα1, MDA-MB-231. The class given is cell-based. The following applies: for complex of PDL1 (unmodified) and IMPα1 (DUOLINK): MDA-MB-231. As for the experimental part:
as §2
(A) CT26, 4T1 or MDA-MB-231 Cells were treated with inhibitors for 72 hours. Following inhibition, media was removed and replaced with WST-1 cell proliferation reagent. Absorbance was recorded at 450 nm after 1 hour. Data represent a single independent experiment performed in triplicate. Results are graphed as mean +/− standard error (SE). B) MDA-MB-231 or CT26 cancer cells were treated with vehicle control, DL-2-Batch 1 (original stock), DL-2-Batch 2 (current stock), DL-2-TBAB or linear PDL1. Cells were permeabilised and were probed with the DUOLINK ligation assay. Cover slips were mounted on glass microscope slides with ProLong nucblue glass Antifade reagent (Life Technologies). PDL1Ac and IMPα1 DUOLINK Digital images were analysed using ImageJ software (ImageJ, NIH, Bethesda, MD, USA) and graphs represent the mean DOT Fluorescent Intensity in the nucleus or the cytoplasm compartments with significant differences calculated as per one-way ANOVA comparison. […] PDL1-unmodified and IMPα1 DUOLINK digital images were analysed using ImageJ software (ImageJ, NIH, Bethesda, MD, USA) and graphs represent the mean DOT fluorescent intensity in the nucleus or the cytoplasm compartments with significant differences calculated as per one-way ANOVA comparison.
MDA-MB-231 and CT26 cells were treated with vehicle control, DL-2-Batch 1, DL-2-Batch 2, DL-2-TBAB (TBAB scaffold), DL-2-D (D-Isomer) or linear PDL1. […] PDL1 (unmodified) and IMPα1 and PDL1-PTM1 and IMPα1 DUOLINK digital images were analysed using ImageJ software (ImageJ, NIH, Bethesda, MD, USA) and graphs represent the mean DOT Fluorescent Intensity in the nucleus or the cytoplasm compartments with significant differences calculated as per One-Way ANOVA comparison. […]
MDA-MB-231 cells were treated with vehicle control (hollow nanoparticle), DL-2-NP at a concentration of 10 nM to 0.3 nM. […] PDL1 (unmodified) & IMPα1 DUOLINK digital images were analysed using ImageJ software (ImageJ, NIH, Bethesda, MD, USA) and graphs represent the mean DOT Fluorescent Intensity in the nucleus or the cytoplasm compartments with significant differences calculated as per One-WayANOVA comparison.

The target in assay [4] is T4, complex of PDL1-PTM1 and IMPα1 (Homo sapiens, UniProt P52292).
T4 construct: endogenous in cells; host or cells: MDA-MB-231
Put plainly: DUOLINK proximity assay PDL1-PTM1 (PDL1-Ac) and IMPα1, MDA-MB-231. The conditions noted are these: for complex of PDL1-PTM1 and IMPα1 (DUOLINK): MDA-MB-231. Type of assay: cell-based. As for the experimental part:
MDA-MB-231 cells were treated with DL-2; with concentrations ranging from 10 μM to 0.00975 μM. MDA-MB-231 cells were treated with DL-2 or Control and were permeabilized and were probed with the DUOLINK ligation assay. Cover slips were mounted on glass microscope slides with Prolong nucleus glass Antifade reagent (Life Technologies). PDL1-Ac and IMPα1 DUOLINK Digital images were analyzed using ImageJ software (ImageJ, NIH, Bethesda, MD, USA) and graphs represent the mean DOT Fluorescent Intensity in the nucleus or the cytoplasm compartments with significant differences calculated as per Kruskal-Wallis one-way ANOVA.
MDA-MB-231 of were treated with vehicle control, DL-2-Batch 1, DL-2-Batch 2, or linear PDL1 peptide. Cells were permeabilised and were probed with the DUOLINK ligation assay. Cover slips were mounted on glass microscope slides with Prolong nucleus glass Antifade reagent (Life Technologies). PDL1Ac and IMPα1 DUOLINK Digital images were analysed using ImageJ software (ImageJ, NIH, Bethesda, MD, USA) and graphs represent the mean DOT Fluorescent Intensity in the nucleus or the cytoplasm compartments with significant differences calculated as per One-Way ANOVA comparison.
as §1, with “B) MDA-MB-231 or CT26 cancer cells were treated with vehicle control, DL-2-Batch 1 (original stock), DL-2-Batch 2 (current stock), DL-2-TBAB or linear PDL1. Cells were permeabilised and were probed with the DUOLINK ligation assay. Cover slips were mounted on glass microscope slides with ProLong nucblue glass Antifade reagent (Life Technologies).” left out

Another assay has as its system MDA-MB-231-Br cells. The experiment in a line: WST-1 cell proliferation assay, MDA-MB-231-Br. Type of assay: cell-based, human. On the technique in general: Tetrazolium dyes change colour on reduction, which living cells bring about.
The test system of assay [5] is metastatic initiating cells (MICs) from stage IV metastatic cancer patients. The experiment in a line: Pre-clinical treatment of MICs from patient liquid biopsies. Type of assay: cell-based, human. The conditions noted are these: cancer cells from NSCLC, TNBC and melanoma patients. From the text:
Mesenchymal MICs were isolated from TNBC, lung cancer and melanoma patient liquid biopsies (scored for RECIST v1.1 for immunotherapy/therapeutic resistance or responsiveness (Complete Response, Partial Response or Progressive Disease) and pre-clinically screened with either vehicle control or the nuclear PDL1 inhibitor, DL-2. Samples were fixed and immunofluorescence microscopy performed on these cells with primary antibodies targeting CSV, PDL1-PTM1 (acetylated nuclear PDL1), ALDH1A1 and ABCB5. Graph represents the CFI values for CSV, NFI for PDL1- PTM1, ALDH1A1 and FI for ABCB5 measured using the ASI Digital pathology automated system to select the nucleus minus background (n≥40 cells/sample/5 patients a group).

Consider “LTFIFRLRKGRMMDVKK (Myristyl-LTFIFRLRKGRMMDVKK) [PDL1-L1, Myristyl- linear peptide, prototype]”, for which the entries for the “complex of PDL1-PTM1 and IMPα1 (DUOLINK)” value in assay [1] and in assay [4] were “no change” and “unable to significantly prevent the complex; also recorded: no change”, respectively. For the same compound, the “complex of PDL1 (unmodified) and IMPα1 (DUOLINK)” value in assay [2] is “unable to significantly impact the complex; also recorded: no change”; in assay [3], “unable to significantly impact the complex; also recorded: no change”; in assay [3] (listed as linear PDL1 peptide), “unable to significantly inhibit this complex”.

On to `CCCCCCCCCCCCCC(=O)NC(C)C(=O)NC1CSCc2cc3cc(c2)CSC[C@H](NC(=O)[C@H](Cc2ccccc2)NC(=O)[C@H](C(C)CC)NC(=O)[C@H](Cc2ccccc2)NC(=O)[C@H]([C@@H](C)O)NC(=O)C(CC(C)C)NC1=O)C(=O)N[C@@H](CCCNC(C)=N)C(=O)N[C@@H](CC(C)C)C(=O)N[C@@H](CCCNC(=N)N)C(=O)N[C@@H](CCCCN)C(=O)NCC(=O)N[C@@H](CCCNC(=N)N)C(=O)NC(C(=O)N[C@@H](CCSC)C(=O)NC(CCSC)C(=O)N[C@@H](CC(=O)O)C(=O)NC(C(=O)N[C@@H](CCCCN)C(=O)NC(CCCCN)C(=O)O)C(C)C)CSC3` (mixture of isomers) [DL-2], for which the “complex of PDL1-PTM1 and IMPα1 (DUOLINK)” value in assay [1] was “able to successfully abrogate the complex”; in assay [4], “abrogate the complex of PDL1 and IMPα1 in a dose dependent manner; also recorded: able to abrogate the complex”. The “complex of PDL1 (unmodified) and IMPα1 (DUOLINK)” value in assay [2] and in assay [3] was “able to abrogate the complex” in each case. Besides, the IC50 came out at 39 nM in assay [3] (MDA-MB-231, DUOLINK, read-out: IC50 for abrogating the PDL1 and IMPα1 complex); 39 nM in assay [4] (MDA-MB-231, 10 μM to 0.00975 μM). In addition, the inhibition of proliferation entry in the assay on MDA-MB-231-Br cells (WST-1) is given as “able to inhibit proliferation”. Moreover, the “potency of proliferation inhibition relative to DL-1” value in the assay on MDA-MB-231-Br cells (higher potency than DL-1) is listed as 2-3 fold. Besides, the “expression of ABCB5, ALDH1A1 and PDL1-PTM1 in MICs” value in assay [5] is reported as “inhibited expression”.

Broadly, the IC50 is the concentration that inhibits the measured activity by half.
